Reference: paper PMC9284491 (Nature Communications, 2022)

Assay: Treatment-emergent adverse events (MedDRA, NCI-CTCAE v4.03), safety populations
Type: in vivo, human
Conditions: Part B, 400 mg QD (N = 49)
Description: Overall safety in Parts A and B was assessed by tabulating TEAEs, coded using the Medical Dictionary for Regulatory Activities (MedDRA) version 22.1, and graded according to NCI-CTCAE v4.03 criteria. TEAEs were classified as related or unrelated to amcenestrant therapy based upon the local investigating physician’s clinical judgment. The safety population included all patients exposed to at least one dose of the study treatment. Results were analyzed using descriptive statistics.

Structure (SMILES): O=C(O)c1ccc2c(c1)CCCC(c1ccc(Cl)cc1Cl)=C2c1ccc(O[C@H]2CCN(CCCF)C2)cc1 [amcenestrant, 6-(2,4-Dichlorophenyl)−5-[4-[(3S)−1-(3-fluoropropyl)pyrrolidin-3-yl]oxyphenyl]−8,9-dihydro-7H-benzo[7]annulene-2-carboxylic acid]
- Back pain, TEAEs, All grades: 5 (10.2) n (%)
- Back pain, TEAEs, Grade 1: 3 (6.1) n (%)
- Back pain, TEAEs, Grade 2: 2 (4.1) n (%)
- Back pain, TEAEs, Grade ≥3: 0 n (%)
- Back pain, Treatment-related TEAEs, All Grades: 0 n (%)
- Back pain, Treatment-related TEAEs, Grade 1: 0 n (%)
- Back pain, Treatment-related TEAEs, Grade 2: 0 n (%)
- Back pain, Treatment-related TEAEs, Grade ≥3: 0 n (%)
- Constipation, TEAEs, All grades: 14 (28.6) n (%)
- Constipation, TEAEs, Grade 1: 12 (24.5) n (%)
- Constipation, TEAEs, Grade 2: 2 (4.1) n (%)
- Constipation, TEAEs, Grade ≥3: 0 n (%)
- Constipation, Treatment-related TEAEs, All Grades: 3 (6.1) n (%)
- Constipation, Treatment-related TEAEs, Grade 1: 2 (4.1) n (%)
- Constipation, Treatment-related TEAEs, Grade 2: 1 (2.0) n (%)
- Constipation, Treatment-related TEAEs, Grade ≥3: 0 n (%)
- Cough, TEAEs, All grades: 4 (8.2) n (%)
- Cough, TEAEs, Grade 1: 4 (8.2) n (%)
- Cough, TEAEs, Grade 2: 0 n (%)
- Cough, TEAEs, Grade ≥3: 0 n (%)
- Cough, Treatment-related TEAEs, All Grades: 1 (2.0) n (%)
- Cough, Treatment-related TEAEs, Grade 1: 1 (2.0) n (%)
- Cough, Treatment-related TEAEs, Grade 2: 0 n (%)
- Cough, Treatment-related TEAEs, Grade ≥3: 0 n (%)
- Decreased appetite, TEAEs, All grades: 7 (14.3) n (%)
- Decreased appetite, TEAEs, Grade 1: 5 (10.2) n (%)
- Decreased appetite, TEAEs, Grade 2: 2 (4.1) n (%)
- Decreased appetite, TEAEs, Grade ≥3: 0 n (%)
- Decreased appetite, Treatment-related TEAEs, All Grades: 2 (4.1) n (%)
- Decreased appetite, Treatment-related TEAEs, Grade 1: 2 (4.1) n (%)
- Decreased appetite, Treatment-related TEAEs, Grade 2: 0 n (%)
- Decreased appetite, Treatment-related TEAEs, Grade ≥3: 0 n (%)
- Depression, TEAEs, All grades: 3 (6.1) n (%)
- Depression, TEAEs, Grade 1: 3 (6.1) n (%)
- Depression, TEAEs, Grade 2: 0 n (%)
- Depression, TEAEs, Grade ≥3: 0 n (%)
- Depression, Treatment-related TEAEs, All Grades: 2 (4.1) n (%)
- Depression, Treatment-related TEAEs, Grade 1: 2 (4.1) n (%)
- Depression, Treatment-related TEAEs, Grade 2: 0 n (%)
- Depression, Treatment-related TEAEs, Grade ≥3: 0 n (%)
- Diarrhea, TEAEs, All grades: 8 (16.3) n (%)
- Diarrhea, TEAEs, Grade 1: 5 (10.2) n (%)
- Diarrhea, TEAEs, Grade 2: 2 (4.1) n (%)
- Diarrhea, TEAEs, Grade ≥3: 1 (2.0) n (%)
- Diarrhea, Treatment-related TEAEs, All Grades: 1 (2.0) n (%)
- Diarrhea, Treatment-related TEAEs, Grade 1: 1 (2.0) n (%)
- Diarrhea, Treatment-related TEAEs, Grade 2: 0 n (%)
- Diarrhea, Treatment-related TEAEs, Grade ≥3: 0 n (%)
- Dry skin, TEAEs, All grades: 3 (6.1) n (%)
- Dry skin, TEAEs, Grade 1: 2 (4.1) n (%)
- Dry skin, TEAEs, Grade 2: 1 (2.0) n (%)
- Dry skin, TEAEs, Grade ≥3: 0 n (%)
- Dry skin, Treatment-related TEAEs, All Grades: 1 (2.0) n (%)
- Dry skin, Treatment-related TEAEs, Grade 1: 1 (2.0) n (%)
- Dry skin, Treatment-related TEAEs, Grade 2: 0 n (%)
- Dry skin, Treatment-related TEAEs, Grade ≥3: 0 n (%)
- Dyspnea, TEAEs, All grades: 8 (16.3) n (%)
- Dyspnea, TEAEs, Grade 1: 6 (12.2) n (%)
- Dyspnea, TEAEs, Grade 2: 2 (4.1) n (%)
- Dyspnea, TEAEs, Grade ≥3: 0 n (%)
- Dyspnea, Treatment-related TEAEs, All Grades: 1 (2.0) n (%)
- Dyspnea, Treatment-related TEAEs, Grade 1: 1 (2.0) n (%)
- Dyspnea, Treatment-related TEAEs, Grade 2: 0 n (%)
- Dyspnea, Treatment-related TEAEs, Grade ≥3: 0 n (%)
- Edema peripheral, TEAEs, All grades: 3 (6.1) n (%)
- Edema peripheral, TEAEs, Grade 1: 3 (6.1) n (%)
- Edema peripheral, TEAEs, Grade 2: 0 n (%)
- Edema peripheral, TEAEs, Grade ≥3: 0 n (%)
- Edema peripheral, Treatment-related TEAEs, All Grades: 1 (2.0) n (%)
- Edema peripheral, Treatment-related TEAEs, Grade 1: 1 (2.0) n (%)
- Edema peripheral, Treatment-related TEAEs, Grade 2: 0 n (%)
- Edema peripheral, Treatment-related TEAEs, Grade ≥3: 0 n (%)
- Fatigue, TEAEs, All grades: 12 (24.5) n (%)
- Fatigue, TEAEs, Grade 1: 8 (16.3) n (%)
- Fatigue, TEAEs, Grade 2: 2 (4.1) n (%)
- Fatigue, TEAEs, Grade ≥3: 2 (4.1) n (%)
- Fatigue, Treatment-related TEAEs, All Grades: 2 (4.1) n (%)
- Fatigue, Treatment-related TEAEs, Grade 1: 2 (4.1) n (%)
- Fatigue, Treatment-related TEAEs, Grade 2: 0 n (%)
- Fatigue, Treatment-related TEAEs, Grade ≥3: 0 n (%)
- Gastroesophageal reflux disease, TEAEs, All grades: 4 (8.2) n (%)
- Gastroesophageal reflux disease, TEAEs, Grade 1: 4 (8.2) n (%)
- Gastroesophageal reflux disease, TEAEs, Grade 2: 0 n (%)
- Gastroesophageal reflux disease, TEAEs, Grade ≥3: 0 n (%)
- Gastroesophageal reflux disease, Treatment-related TEAEs, All Grades: 3 (6.1) n (%)
- Gastroesophageal reflux disease, Treatment-related TEAEs, Grade 1: 3 (6.1) n (%)
- Gastroesophageal reflux disease, Treatment-related TEAEs, Grade 2: 0 n (%)
- Gastroesophageal reflux disease, Treatment-related TEAEs, Grade ≥3: 0 n (%)
- Headache, TEAEs, All grades: 3 (6.1) n (%)
- Headache, TEAEs, Grade 1: 3 (6.1) n (%)
- Headache, TEAEs, Grade 2: 0 n (%)
- Headache, TEAEs, Grade ≥3: 0 n (%)
